Patent publication US20240025857A1, “NEW CATECHOLAMINE PRODRUGS FOR USE IN THE TREATMENT OF PARKINSON'S DISEASE” (H. Lundbeck A/S, priority 2020, published 2024)
Converted amounts (≈) assume the structure as drawn. Counter-ions that a name gives are not always drawn.

Experiments:
[1] = PK experiments in rats: plasma compound (I) after oral dosing of prodrug; settings: for conversion to compound (I) in vivo: oral dosing, rats, Example 2
Experimental: (§1) The tubes were inverted gently 6-8 times to ensure thorough mixing and then placed in wet ice. The collecting tube was placed in wet ice for up to 30 minutes until centrifugation (3000 G for 10 minutes at 4° C.). Once removed from the wet ice the centrifugation was initiated immediately. Immediately after end of centrifugation the samples were returned to wet ice. Two sub-samples of 130 microL plasma were transferred to each of two appropriately labelled cryo tubes containing 6.5 microL pre-cooled formic acid (20% in water v/v) The tube lid was immediately replaced, and the plasma solution was thoroughly mixed by inverting gently 6-8 times. The plasma samples were placed on water-ice as far as possible and stored frozen at nominally −70° C. within 60 minutes after sampling.
(§2) For experiments relating to compounds (II) and (III), the above protocol was used, with the exception that K3EDTA tubes were prepared with stabilizing aqueous solution consisting of 80 microL 100 mg/mL ascorbic acid and 40 microL inhibitor solution containing 100 mg/mL citric acid, 21 mg/mL D-saccharic acid 1,4 lactone and 29 mg/mL tris-(2-carboxyethyl)phosphine (TCEP).
(§3) Plasma samples were analyzed by solid phase extraction or direct protein precipitation followed by UPLC-MS/MS. MS detection using electrospray in the positive ion mode with monitoring of specific mass-to-charge transitions for compound (I) using internal standards for correcting the response. The concentration-time data was analyzed, using standard software using appropriate noncompartmental techniques to obtain estimates of the derived PK parameters.
(§4) Han Wistar rats were supplied by Charles River Laboratories, Sulzfeld, Germany. An artificial, automatically controlled, light and dark cycle of 12 hours was maintained. The rats received a standard laboratory diet from Brogaarden (Altromin 1324 pellets). The rats had unrestricted access to the diet.
(§5) Han Wistar rats were supplied by Charles River Laboratories, UK. An artificial, automatically controlled, light and dark cycle of 12 hours was maintained. The rats received a standard laboratory diet (Teklad 2014C Diet). The rats had unrestricted access to the diet.

[2] = in man after oral dosing; extensive hepatic first-pass metabolism; cited from earlier work
[3] = Conversion to compound (I) in human liver S9; assay type: in vitro ADME; settings: 1 μM, 4 mg/mL protein, 37° C., 0-60 minutes; compared to (Id-iia) and (Id-iib); FIG. 3
Experimental: The compounds (II), (III), (Id-iia), and (Id-iib) were incubated separately at 1 μM with rat and human liver S9 fraction suspended in 50 mM phosphate buffer at pH 7.4 with 5 mM MgCl2, 200 U/mL superoxide dismutase and 1 mM ascorbic acid. The human liver S9 (pool from 50 donors) and the rat liver S9 (from Wistar Han rats, pool of 240) fractions were purchased from SekisuiXenoTech, USA. The protein concentration in the incubation was 4 mg/mL. The incubations were performed in 96-well plates at 37° C. using an automated Hamilton liquid handling system with a total incubation volume of 150 microliter per well. The compounds were each incubated in triplicates in three wells per time point. The liver S9 suspensions were pre-incubated at 37° C. and the reactions started by addition of stock solutions of the test compounds to the incubation wells. The test compounds were dissolved in dimethyl sulfoxide (DMSO) and further diluted in water before spiking the stock solution into the incubation wells. […] Concentrations of compound (I) were determined after solid-phase extraction of the samples followed by LC-MS/MS analysis. The increase in concentration of compound (I) at the different time points was calculated by subtracting the concentration of compound (I) in the sample taken at time 0 from the concentrations of compound (I) in samples taken at the different time points. […]

[4] = assay type: in vitro ADME, Wistar Han rats; settings: 1 μM, 4 mg/mL protein, 37° C., 0-60 minutes; FIG. 4
Experimental: The human liver S9 (pool from 50 donors) and the rat liver S9 (from Wistar Han rats, pool of 240) fractions were purchased from SekisuiXenoTech, USA. The protein concentration in the incubation was 4 mg/mL. The incubations were performed in 96-well plates at 37° C. using an automated Hamilton liquid handling system with a total incubation volume of 150 microliter per well. The compounds were each incubated in triplicates in three wells per time point. The liver S9 suspensions were pre-incubated at 37° C. and the reactions started by addition of stock solutions of the test compounds to the incubation wells. The test compounds were dissolved in dimethyl sulfoxide (DMSO) and further diluted in water before spiking the stock solution into the incubation wells. The final DMSO concentration in the incubations was 0.1%. The test compounds were incubated with liver S9 fractions for 0, 5, 10, 15, 30, 45 and 60 minutes. The incubations were terminated by transferring 100 microliter of the incubation samples to a 96-well plate containing 100 microliter of cold (approximately +4° C.) stop reagent containing 2% formic acid, 20 mg/mL ascorbic acid, 10 mg/mL citric acid and 3 mg/mL TCEP (tris(2-carboxyethyl)phosphine). After mixing, the samples were transferred to Nunc 1.0 mL cryo tubes and immediately frozen at −80° C. until analysis. Concentrations of compound (I) were determined after solid-phase extraction of the samples followed by LC-MS/MS analysis. The increase in concentration of compound (I) at the different time points was calculated by subtracting the concentration of compound (I) in the sample taken at time 0 from the concentrations of compound (I) in samples taken at the different time points.
Mass spectrometer (LC-MS/MS) Waters Acquity-Waters Xevo TQ-S. Analytical column Acquity BEH C18 50×2.1 mm, 1.7 micrometer. Mobile phase A: 0.2% formic acid in 20 mM NH4-Formate. Mobile phase B: 0.2% formic acid in acetonitrile. Gradient run from 5% B to 95% B in 3.5 minutes. Flow rate 0.6 mL/min. […]

physchem = assay type: physicochemical; settings: aqueous buffer, thermodynamic from solid; 25 mM phosphate buffer pH 6, 24 hours rotation, saturated solution; read-out: Measured solubility at pH 6
Experimental: For compound (III), a sample was prepared with excess compound (III) to establish a saturated solution. 4.2 mg of compound (III) was transferred to a vial and 0.5 mL buffer (25 mM phosphate buffer, NaH2PO4/Na2HPO4, pH 6) was added. The sample was mixed by rotation for 24 hours. pH of the sample was measured at t=0 (prior to rotation) and at t=24 h (after 24 h of rotation). Subsequently, some of the sample was filtered with 0.22 micrometer polyvinylidene difluoride filter, first few drops discarded, and content of dissolved compound (III) was quantified by reverse phased HPLC (C18, 3.5 micrometer, 4.6×150 mm column) with eluent 20 mM ammonium buffer pH 2.4 with methanol, 80:20.
The remaining undissolved material was extracted, and air dried for approximately 20 minutes on a metal plate prior to analysis by X-ray powder diffractogram (XRPD). XRPD diffractograms were obtained on a PANalytical X'Pert PRO X-Ray Diffractometer using CuKa1 radiation (λ=1.5406 Å). The samples were measured in reflection mode in the 2θ-range 3-39.9° using an X'celerator detector.

[5] = male, Han Wistar, rat, in vivo, po
Experimental: as §1, §2, §3, §4, §5

Compound	conversion to compound (I) in human liver S9 fraction [3]	conversion to compound (I) in rat liver S9 [4]	conversion to compound (I) in vivo [1]	solubility at 24 h (physchem) [µg/mL]	also measured
CCCN1CCC[C@@H]2Cc3c(ccc(OC(=O)C(C)(C)C)c3OC(=O)C(C)(C)C)C[C@H]21 [(Ic)]					plasma concentrations of compound (I) ([1]; oral administration of the prodrug, Wistar rats, in words): extremely low
CCCc1cc2c(s1)CN[C@@H]1CCc3cc(OC(C)=O)c(OC(C)=O)cc3[C@@H]21 [Adrogolide]					oral bioavailability [2]: ~4%
CCCN1CCC[C@@H]2CC3=C(CCCC3=O)C[C@H]21 [Compound (Ia)]					AUC0-24 [5]: 13.6 ng·h/mL; Cmax [5]: 3.16 ng/mL; Tmax ([5]; 0.3 mg/kg): 1.0 h; Exposure at 24 h ([5]; 24 h): 48 ± 26 pg/mL

Second part, led by results:

conversion to compound (I) in human liver S9 fraction [3]	conversion to compound (I) in rat liver S9 [4]	conversion to compound (I) in vivo [1]	solubility at 24 h (physchem) [µg/mL]	Compound	also measured
increased conversion to compound (I)	is converted to compound (I)	converted to compound (I) in vivo		CCCN1CCC[C@@H]2Cc3c(ccc(OS(N)(=O)=O)c3O)C[C@H]21 [Compound (II), (4aR,10aR)-6-hydroxy-1-propyl-1,2,3,4,4a,5,10,10a-octahydrobenzo[g]quinolin-7-yl sulfamate]	
increased conversion to compound (I)	is converted to compound (I)	converted to compound (I) in vivo	890 (≈ 2610 µM)	CCCN1CCC[C@@H]2Cc3c(ccc(O)c3OS(N)(=O)=O)C[C@H]21 [Compound (III), (4aR,10aR)-7-hydroxy-1-propyl-1,2,3,4,4a,5,10,10a-octahydrobenzo[g]quinolin-6-yl sulfamate]	
	is converted to compound (I)		37	CCCN1CCC[C@@H]2Cc3c(ccc(OS(=O)(=O)O)c3O)C[C@H]21 [Compound (Id-iib), (4aR,10aR)-6-hydroxy-1-propyl-1,2,3,4,4a,5,10,10a-octahydrobenzo[g]quinolin-7-yl hydrogen sulfate]	
